Like-named read-outs stand apart in the source and are kept apart here.
Tests used:
WSU-NHL cells [1] = assay: pretreatment with Trichostatin A or Belinostat, Prednisolone and CHOP, viability by trypan blue exclusion; conditions: for sensitization to CHOP-treatment: pretreatment with the HDAC inhibitor alone before CHOP
Protocol: Viability was assessed by trypan blue exclusion at indicated time points (n=3). Significant differences were evaluated using Student's unpaired t-test. All tests were two-sided. Effects were considered statistically significant at *P<0.05, **P<0.01, ***P<0.001.

WSU-NHL cells [2] = assay: pretreatment with VPA and prednisolone before CHOP, viability by trypan blue exclusion; format: cell-based
From the text: Pretreatment with VPA before CHOP could theoretically increase the response to CHOP therapy through induction of DNA damage. However, VPA treatment could result in symptoms such as somnolence in a patient. These symptoms could be counteracted by simultaneous treatment with prednisolone. […] All tests were two-sided.

[3] = continuous VPA treatment in patients with epilepsy; cited from earlier work
histone H3 = assay: acetylation of histone H3 by western blot analysis in DLBCL cell line model; format: cell-based; conditions: valproic acid at pharmacological concentrations
WSU-NHL cells [4] = assay: Rituximab antibody-dependent cellular cytotoxicity (ADCC) with NK cells, dead target cells PKH26/7-AAD double positive; format: cell-based
Protocol: (§1) To estimate the impact of VPA on the antibody-dependent-cellular cytotoxicity (ADCC) induced by the CD20 antibody Rituximab. […]
(§2) NK cells were added as an effector to target cell ratio of 10:1, thereafter the cells were incubated for an additional 20 hours. Dead target cells were identified as double positive for PKH26 and 7-AAD and used as readout of the assay.

SU-DHL-8 cells [5] = assay: as above; format: cell-based
Protocol: as §1, §2

[6] = VPA serum concentration in patients; format: in vivo, human; conditions: 5 day VPA treatment for compassionate use as noted by the inventor
Protocol: (§3) The DLBCL cell lines SU-DHL-8 (Table 2A) and WSU-NHL (Table 2B) were treated for 72 hours with 0.5 mM or 1.5 mM VPA alone, or in combination with CHOP. The concentration of 0.5 mM VPA was chosen because it is a normal serum concentration during continuous VPA treatment in patients with epilepsy. The concentration of 1.5 mM VPA was chosen because it is the maximal tolerated serum concentration during 5 day VPA treatment for compassionate use as noted by the inventor.

WSU-NHL = assay: cell viability time course by trypan blue exclusion, 0.5 mM or 1.5 mM VPA alone or with CHOP; format: cell-based; conditions: Homo sapiens, read-out: Viability (% of control cells day 1); for viability at 500 µM: 0.5 mM VPA; for viability at 1500 µM: 1.5 mM VPA
Protocol: as §3
(§4) The cell viability was assessed after 0 (Day 1), 24 (Day 2), 48 (Day 3) and 72 (Day 4) hours respectively, by trypan blue exclusion and normalised to untreated control cells. Data are presented as mean, n=3.
(§5) Treatment effects on viability were tested against the effects of CHOP treatment alone. […] All tests were two-sided. Effects were considered statistically significant at P<0.05 (*) and P<0.01 (**).
(§6) Viability (% of control cells day 1) are shown in Table 2A (SU-DHL-8) and Table 2B (WSU-NHL, n=3) respectively.

SU-DHL-8 = assay: as above; format: cell-based; conditions: Homo sapiens, read-out: Viability (% of control cells day 1); for viability at 500 µM: SU-DHL-8, 0.5 mM VPA; for viability at 1500 µM: SU-DHL-8, 1.5 mM VPA
Protocol: as §3, §4, §5, §6

Karpas-422 cells = assay: cell viability by trypan blue exclusion after 72 hours, VPA alone or in combination with CHOP; format: cell-based; conditions: Homo sapiens, KARPAS-422, 72 h; for viability at 100 µM: 0.1 mM VPA; for viability at 2000 µM: 2 mM VPA; for viability at 10000 µM: 10 mM VPA
Protocol: (§7) The DLBCL cell lines WSU-NHL, Karpas-422, ULA, SU-DHL-5 and SU-DHL-8 cells were treated for 72 hours with three different concentrations (0.1 mM, 2 mM and 10 mM respectively) of valproic acid (VPA) alone, or in combination with CHOP. The CHOP regimen used in all examples consists of 10 μM cyclophosphamide monohydrate, 20 nM doxorubicin hydrochloride, 2 nM vincristine sulfate and 20 μg/ml prednisolone. (Ageberg, Rydström, Lindén, Linderoth, Jerkeman and Drott; Exp Cell Research; May 1; 317(8):1179-91).
(§8) The cell viability was assessed after 72 hours by trypan blue exclusion and normalised to untreated control cells at day 0 (seeding). Data are presented as mean±SEM, n=3.

SU-DHL-5 cells = assay: as above; format: cell-based; conditions: Homo sapiens, SU-DHL-5, 72 h; for viability at 100 µM: 0.1 mM VPA; for viability at 2000 µM: 2 mM VPA; for viability at 10000 µM: 10 mM VPA
Protocol: as §7, §8

WSU-NHL cells [7] = assay: as above; format: cell-based; conditions: Homo sapiens; for viability at 100 µM: 0.1 mM VPA; for viability at 2000 µM: 2 mM VPA; for viability at 10000 µM: 10 mM VPA
Protocol: as §7, §8

ULA cells = assay: as above; format: cell-based; conditions: for viability at 100 µM: 0.1 mM VPA; for viability at 2000 µM: 2 mM VPA; for viability at 10000 µM: 10 mM VPA
Protocol: as §7, §8

SU-DHL-8 cells [8] = assay: as above; format: cell-based; conditions: Homo sapiens, SU-DHL-8, 72 h; for viability at 100 µM: 0.1 mM VPA; for viability at 2000 µM: 2 mM VPA; for viability at 10000 µM: 10 mM VPA
Protocol: as §7, §8

[9] = 1.5 mM VPA for 24 hours before rituximab
[10] = Rituximab 0 μg/ml, +NK Cells + 1.5 mM VPA
[11] = Rituximab 0.1 μg/ml, +NK Cells + 1.5 mM VPA
[12] = Rituximab 0.1 μg/ml, +NK Cells + 1.5 mM VPA + CHOP
[13] = Rituximab 0.1 μg/ml, +NK cells + CHOP
[14] = Rituximab 1 μg/ml, +NK Cells + 1.5 mM VPA
[15] = Rituximab 1 μg/ml, +NK Cells + 1.5 mM VPA + CHOP
[16] = Rituximab 1 μg/ml, +NK cells + CHOP
[17] = Rituximab 10 μg/ml, +NK Cells + 1.5 mM VPA
[18] = Rituximab 10 μg/ml, +NK Cells + 1.5 mM VPA + CHOP
[19] = Rituximab 10 μg/ml, +NK cells + CHOP

Molecule: O=C(/C=C/c1cccc(S(=O)(=O)Nc2ccccc2)c1)NO [Belinostat]
- sensitization to CHOP-treatment (WSU-NHL cells [1]): sensitized DLBCL cell lines to CHOP-induced cell death

Molecule: C[C@]12C=CC(=O)C=C1CC[C@@H]1[C@@H]2[C@@H](O)C[C@@]2(C)[C@H]1CC[C@]2(O)C(=O)CO [Prednisolone]
- CHOP-induced cell death (WSU-NHL cells [1]; prednisolone (20 μg/ml) added to HDAC inhibitor pretreatment before CHOP): significantly increases CHOP-induced cell death
- CHOP-induced cell death (WSU-NHL cells [2]; prednisolone (20 μg/ml) added to VPA pretreatment before CHOP, compared to pretreatment with VPA alone): further increases significantly CHOP-induced cell death

Molecule: CCCC(CCC)C(=O)O [VPA, valproic acid]
- normal serum concentration [3]: 0.5 mM
- acetylation of histone H3 (histone H3): increase in acetylation of histone H3
- effect on Rituximab induced ADCC (WSU-NHL cells [4]; [9]): does not affect Rituximab induced ADCC
- percentage of dead cells, Mean (WSU-NHL cells [4]; [10]): 27%
- effect on Rituximab induced ADCC (SU-DHL-8 cells [5]; [9]): does not affect Rituximab induced ADCC
- percentage of dead cells, Mean (SU-DHL-8 cells [5]; [10]): 34%
- maximal tolerated serum concentration [6]: 1.5 mM
- viability at 500 µM (WSU-NHL; Day 1 (0 hours)): 100%
- viability at 500 µM (WSU-NHL; Day 2 (24 hours)): 97%
- viability at 500 µM (WSU-NHL; Day 3 (48 hours)): 99%
- viability at 500 µM (WSU-NHL; Day 4 (72 hours)): 98%
- viability at 1500 µM (WSU-NHL; Day 1 (0 hours)): 100%
- viability at 1500 µM (WSU-NHL; Day 2 (24 hours)): 95%
- viability at 1500 µM (WSU-NHL; Day 3 (48 hours)): 68%
- viability at 1500 µM (WSU-NHL; Day 4 (72 hours)): 36%
- viability at 500 µM (SU-DHL-8; Day 1 (0 hours)): 100%
- viability at 500 µM (SU-DHL-8; Day 2 (24 hours)): 102%
- viability at 500 µM (SU-DHL-8; Day 3 (48 hours)): 101%
- viability at 500 µM (SU-DHL-8; Day 4 (72 hours)): 94%
- viability at 1500 µM (SU-DHL-8; Day 1 (0 hours)): 100%
- viability at 1500 µM (SU-DHL-8; Day 2 (24 hours)): 97%
- viability at 1500 µM (SU-DHL-8; Day 3 (48 hours)): 64%
- viability at 1500 µM (SU-DHL-8; Day 4 (72 hours)): 59%
- sensitization to CHOP-treatment (WSU-NHL cells [2]; pretreatment with VPA alone before CHOP): sensitizes lymphoma cell lines to CHOP-treatment
- viability at 100 µM (Karpas-422 cells; +CHOP): 80%
- viability at 100 µM (Karpas-422 cells; −CHOP): 100%
- viability at 2000 µM (Karpas-422 cells; +CHOP): 67%
- viability at 2000 µM (Karpas-422 cells; −CHOP): 102%
- viability at 10000 µM (Karpas-422 cells; +CHOP): 21%
- viability at 10000 µM (Karpas-422 cells; −CHOP): 21%
- viability at 100 µM (SU-DHL-5 cells; +CHOP): 26%
- viability at 100 µM (SU-DHL-5 cells; −CHOP): 124%
- viability at 2000 µM (SU-DHL-5 cells; +CHOP): 1%
- viability at 2000 µM (SU-DHL-5 cells; −CHOP): 53%
- viability at 10000 µM (SU-DHL-5 cells; +CHOP): 0%
- viability at 10000 µM (SU-DHL-5 cells; −CHOP): 0%
- viability at 100 µM (WSU-NHL cells [7]; +CHOP): 63%
- viability at 100 µM (WSU-NHL cells [7]; −CHOP): 99%
- viability at 2000 µM (WSU-NHL cells [7]; +CHOP): 6%
- viability at 2000 µM (WSU-NHL cells [7]; −CHOP): 29%
- viability at 10000 µM (WSU-NHL cells [7]; +CHOP): 0%
- viability at 10000 µM (WSU-NHL cells [7]; −CHOP): 1%
- viability at 100 µM (ULA cells; +CHOP): 73%
- viability at 100 µM (ULA cells; −CHOP): 105%
- viability at 2000 µM (ULA cells; +CHOP): 52%
- viability at 2000 µM (ULA cells; −CHOP): 52%
- viability at 10000 µM (ULA cells; +CHOP): 42%
- viability at 10000 µM (ULA cells; −CHOP): 50%
- viability at 100 µM (SU-DHL-8 cells [8]; +CHOP): 55%
- viability at 100 µM (SU-DHL-8 cells [8]; −CHOP): 105%
- viability at 2000 µM (SU-DHL-8 cells [8]; +CHOP): 0%
- viability at 2000 µM (SU-DHL-8 cells [8]; −CHOP): 67%
- viability at 10000 µM (SU-DHL-8 cells [8]; +CHOP): 0%
- viability at 10000 µM (SU-DHL-8 cells [8]; −CHOP): 0%

Molecule: Rituximab: the CD20 antibody Rituximab
- percentage of dead cells, Mean (WSU-NHL cells [4]; [11]): 40%
- percentage of dead cells, Mean (WSU-NHL cells [4]; [12]): 60%
- percentage of dead cells, Mean (WSU-NHL cells [4]; Rituximab 0.1 μg/ml, +NK cells): 35%
- percentage of dead cells, Mean (WSU-NHL cells [4]; [13]): 45%
- percentage of dead cells, Mean (WSU-NHL cells [4]; [14]): 50%
- percentage of dead cells, Mean (WSU-NHL cells [4]; [15]): 60%
- percentage of dead cells, Mean (WSU-NHL cells [4]; Rituximab 1 μg/ml, +NK cells): 45%
- percentage of dead cells, Mean (WSU-NHL cells [4]; [16]): 54%
- percentage of dead cells, Mean (WSU-NHL cells [4]; [17]): 56%
- percentage of dead cells, Mean (WSU-NHL cells [4]; [18]): 66%
- percentage of dead cells, Mean (WSU-NHL cells [4]; Rituximab 10 μg/ml, +NK cells): 54%
- percentage of dead cells, Mean (WSU-NHL cells [4]; [19]): 61%
- percentage of dead cells, Mean (SU-DHL-8 cells [5]; [11]): 43%
- percentage of dead cells, Mean (SU-DHL-8 cells [5]; [12]): 50%
- percentage of dead cells, Mean (SU-DHL-8 cells [5]; Rituximab 0.1 μg/ml, +NK cells): 38%
- percentage of dead cells, Mean (SU-DHL-8 cells [5]; [13]): 38%
- percentage of dead cells, Mean (SU-DHL-8 cells [5]; [14]): 49%
- percentage of dead cells, Mean (SU-DHL-8 cells [5]; [15]): 63%
- percentage of dead cells, Mean (SU-DHL-8 cells [5]; Rituximab 1 μg/ml, +NK cells): 50%
- percentage of dead cells, Mean (SU-DHL-8 cells [5]; [16]): 49%
- percentage of dead cells, Mean (SU-DHL-8 cells [5]; [17]): 58%
- percentage of dead cells, Mean (SU-DHL-8 cells [5]; [18]): 66%
- percentage of dead cells, Mean (SU-DHL-8 cells [5]; Rituximab 10 μg/ml, +NK cells): 60%
- percentage of dead cells, Mean (SU-DHL-8 cells [5]; [19]): 59%

Molecule: CC(/C=C/C(=O)NO)=C\[C@@H](C)C(=O)c1ccc(N(C)C)cc1 [TSA, Trichostatin A]
- sensitization to CHOP-treatment (WSU-NHL cells [1]): sensitizes lymphoma cell lines to CHOP-treatment
